According to patent publication US20030073837A1, “3-HETEROARYLIDENYL-2-INDOLINONE COMPOUNDS FOR MODULATING PROTEIN KINASE ACTIVITY AND FOR USE IN CANCER CHEMOTHERAPY” (priority 1998, published 2003):

Experiments:
[1] = Subchronic toxicokinetic study (28 day toxicity study), rats; assay type: in vivo
[2] = test system: ATP binding site of the receptor tyrosine kinase; assay: Washout experiments in vitro
[3] = In vivo intravenous pharmacokinetics, rats
[4] = test system: a variety of tumor cell lines; assay: Direct inhibitory effect on tumor cell lines in vitro; assay type: cell-based; settings: concentrations up to 50 μM
[5] = test system: β-450 liver enzymes (CYP1A2 and CYP3A4); assay: In vitro metabolism studies; assay type: in vitro ADME
[6] = test system: a variety of tumor cell lines subcutaneously implanted; assay: Subcutaneous tumor implants in immunocompromised mice; assay type: in vivo
From the text: (§1) The ability of human tumors to grow as xenografts in athymic mice (e.g., Balb/c, nu/nu) provides a useful in vivo model for studying the biological response to therapies for human tumors. Since the first successful xenotransplantation of human tumors into athymic mice, (Rygaard and Povlsen, 1969, Acta Pathol. Microbial. Scand. 77:758-760), many different human tumor cell lines (e.g., mammary, lung, genitourinary, gastrointestinal, head and neck, glioblastoma, bone, and malignant melanomas) have been transplanted and successfully grown in nude mice. The following assays may be used to determine the level of activity, specificity and effect of the different compounds of the present invention. […]
(§2) Cell lines are grown in appropriate medium (for example, MEM, DMEM, Ham's F10, or Ham's F12 plus 5%-10% fetal bovine serum (FBS) and 2 mM glutamine (GLN)). […] All cell lines are routinely subcultured twice a week and are negative for mycoplasma as determined by the Mycotect method (Gibco).
(§3) Cells are harvested at or near confluency with 0.05% Trypsin-EDTA and pelleted at 450×g for 10 min. […] Tumor growth is measured over 3 to 6 weeks using venier calipers. Tumor volumes are calculated as a product of length×width×height unless otherwise indicated. P values are calculated using the Students t-test. […]

[7] = In vivo intravenous pharmacokinetics, mice
human melanoma cells = assay: Dose response study, human melanoma cells subcutaneous in athymic mice; assay type: in vivo; settings: daily administration, doses as low as 1 mg/kg/day
From the text: as §1, §2, §3

[8] = Whole body autoradiography and excretion after intravenous injection; assay type: in vivo; settings: in 24 hours, 14C-labeled
[9] = Phase 1 study pharmacokinetics in patients with advanced malignancies; settings: for half-life: plasma, intravenous

## Cc1cc(C)c(/C=C2\C(=O)Nc3ccccc32)[nH]1 [3-[(2,4-dimethylpyrrol-5-yl)methylidenyl]-2-indolinone]
[1]
  accumulation in plasma upon repeated administration: did not accumulate in plasma
[2]
  target half-life: 96 h
[3]; intravenous
  elimination of the parent compound from the circulation: rapid elimination
[3]; intravenous 29.5-97.9 mg/m^2
  elimination half-life versus dose: linearly increases as the dose increased
[3]; intravenous 29.5-97.9 mg/m^2, with a 3-fold increase in dose
  increase of AUC: 10 fold
[4]
  direct inhibitory effects on tumor cell lines: no direct inhibitory effects
[5]
  metabolizing enzymes: metabolized via β-450 liver enzymes, most probably via CYP1A2 and CYP3A4
[6]; administration delayed until tumors approximately 50 mm^3, versus start on Day 1
  suppression of tumor growth with delayed administration: equivalent efficacy
[6]; daily intraperitoneal dosing 12.5-25 mg/kg/day for 28 days
  inhibition of tumor growth: 30-80%
[7]
  elimination of the parent compound from the circulation: rapid elimination
Human melanoma cells
  inhibition of human melanoma cells: dose-dependent inhibition
[8]
  excreted in feces: 72%
  excreted in urine: 16%
  total dose recovered: 92 % of the total administered dose
[9]; after eight infusions, all patients
  increase of the rate of clearance: 50-300%
[9]; calculated by a one-compartment model
  total distributive volume: 53.6 ± 11.3 L
[9]; doses 4.4-190 mg/m^2
  clearance versus dose: independent of dose
[9]; doses tested in humans to date
  AUC and CMAX versus dose: increase linearly with dose
[9]; human, in vivo
  individual clearance calculated based on BSA: 41.8±22.1 L/hour/m2
[9]; human, alpha half-life, mean, doses 4.4-190 mg/m^2
  half-life: 5.8 ± 1.9 min
[9]; human, beta half-life or elimination phase, mean, doses 4.4-190 mg/m^2
  half-life: 43.4 ± 21.9 min
[9]; human, beta half-life or elimination phase, range, doses 4.4-190 mg/m^2
  half-life: 10 to 111 min
[9]; human, half-life in humans, doses 4.4-190 mg/m^2, preliminary
  half-life: ~60 min
